Experimental data as given in ChEMBL document CHEMBL5465560, “Selectivity Literature for EUbOPEN Chemogenomic Library” (2024).

Experiments:
Ephrin type-A receptor 4 = Ephrin type-A receptor 4 (Homo sapiens, UniProt P54764); assay: Selectivity interaction (KinomeScan (DiscoverX)) EUB0000092b EPHA4; settings: at 10 µM
[1] = molecular target: Serine/threonine-protein kinase 32A (Homo sapiens) (UniProt Q8WU08); assay: Selectivity interaction (KinomeScan (DiscoverX)) EUB0000655a STK32A; settings: at 10 µM
[2] = system: Tyrosine-protein kinase ABL1 (Homo sapiens), P00519 [F317I]; assay: Selectivity interaction (KinomeScan (DiscoverX)) EUB0000607a ABL1; settings: at 10 µM
[3] = molecular target: T1, Tyrosine-protein kinase receptor TYRO3 (Homo sapiens) (UniProt Q06418); assay: Selectivity interaction (KinomeScan (DiscoverX)) EUB0000607a TYRO3; settings: at 10 µM
T1 sequence (whole entry): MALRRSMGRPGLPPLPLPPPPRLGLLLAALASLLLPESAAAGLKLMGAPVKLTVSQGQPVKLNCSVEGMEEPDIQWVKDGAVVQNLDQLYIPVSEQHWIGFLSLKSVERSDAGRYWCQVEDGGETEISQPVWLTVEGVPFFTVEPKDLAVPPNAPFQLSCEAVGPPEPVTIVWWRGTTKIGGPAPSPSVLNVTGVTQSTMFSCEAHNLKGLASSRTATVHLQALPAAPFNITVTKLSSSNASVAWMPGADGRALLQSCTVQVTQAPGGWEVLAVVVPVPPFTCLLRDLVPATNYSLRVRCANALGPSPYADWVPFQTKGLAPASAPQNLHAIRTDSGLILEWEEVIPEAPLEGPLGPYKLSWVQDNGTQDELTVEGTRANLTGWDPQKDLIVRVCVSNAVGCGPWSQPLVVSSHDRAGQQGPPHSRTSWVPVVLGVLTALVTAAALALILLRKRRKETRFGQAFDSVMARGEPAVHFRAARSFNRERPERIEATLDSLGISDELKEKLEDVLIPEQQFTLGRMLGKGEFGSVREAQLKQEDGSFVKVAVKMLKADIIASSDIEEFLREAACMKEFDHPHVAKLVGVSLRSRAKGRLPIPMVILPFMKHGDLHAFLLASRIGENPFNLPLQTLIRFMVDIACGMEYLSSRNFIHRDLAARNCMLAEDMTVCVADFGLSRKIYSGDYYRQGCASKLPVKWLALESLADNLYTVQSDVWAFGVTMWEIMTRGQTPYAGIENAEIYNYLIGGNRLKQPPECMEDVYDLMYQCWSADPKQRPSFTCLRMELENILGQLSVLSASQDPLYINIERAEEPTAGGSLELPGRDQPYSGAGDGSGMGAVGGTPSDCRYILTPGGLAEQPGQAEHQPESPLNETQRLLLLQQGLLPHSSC

[4] = molecular target: T2, Mitogen-activated protein kinase kinase kinase 13 (Homo sapiens) (UniProt O43283); assay: Selectivity interaction (KinomeScan (DiscoverX)) EUB0000695a MAP3K13; settings: at 100 nM
T2 sequence (whole entry): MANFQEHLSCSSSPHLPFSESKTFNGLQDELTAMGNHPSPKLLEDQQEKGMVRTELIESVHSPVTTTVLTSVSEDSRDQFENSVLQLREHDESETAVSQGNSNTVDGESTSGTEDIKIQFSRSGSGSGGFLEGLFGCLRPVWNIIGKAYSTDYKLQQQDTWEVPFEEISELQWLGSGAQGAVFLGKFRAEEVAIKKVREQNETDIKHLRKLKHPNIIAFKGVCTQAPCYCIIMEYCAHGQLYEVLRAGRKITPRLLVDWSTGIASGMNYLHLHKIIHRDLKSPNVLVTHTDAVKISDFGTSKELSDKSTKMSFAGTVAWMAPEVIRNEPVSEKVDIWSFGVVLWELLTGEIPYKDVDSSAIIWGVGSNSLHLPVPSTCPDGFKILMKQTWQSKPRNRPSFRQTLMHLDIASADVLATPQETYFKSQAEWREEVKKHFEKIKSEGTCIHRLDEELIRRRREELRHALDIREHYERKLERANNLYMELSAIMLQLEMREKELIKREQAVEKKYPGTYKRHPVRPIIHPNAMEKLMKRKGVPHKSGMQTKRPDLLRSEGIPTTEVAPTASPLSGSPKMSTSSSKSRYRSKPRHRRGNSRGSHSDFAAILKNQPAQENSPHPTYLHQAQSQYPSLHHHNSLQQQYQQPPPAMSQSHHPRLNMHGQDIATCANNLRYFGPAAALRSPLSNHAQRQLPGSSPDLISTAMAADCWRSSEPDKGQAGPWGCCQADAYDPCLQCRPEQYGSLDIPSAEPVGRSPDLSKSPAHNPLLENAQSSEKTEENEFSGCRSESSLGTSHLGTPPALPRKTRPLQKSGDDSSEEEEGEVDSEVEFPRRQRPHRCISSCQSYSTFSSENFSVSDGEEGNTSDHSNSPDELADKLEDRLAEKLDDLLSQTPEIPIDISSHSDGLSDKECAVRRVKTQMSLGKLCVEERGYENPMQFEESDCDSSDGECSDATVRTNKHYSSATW

[5] = molecular target: Phosphatidylinositol 4-phosphate 5-kinase type-1 gamma (Homo sapiens) (UniProt O60331); assay: Selectivity interaction (KinomeScan (DiscoverX)) EUB0001619a PIP5K1C; settings: at 1 µM
[6] = molecular target: T3, Receptor-interacting serine/threonine-protein kinase 1 (Homo sapiens) (UniProt Q13546); assay: Selectivity interaction (KinomeScan (DiscoverX)) EUB0001619a RIPK1; settings: at 1 µM
T3 sequence (whole entry): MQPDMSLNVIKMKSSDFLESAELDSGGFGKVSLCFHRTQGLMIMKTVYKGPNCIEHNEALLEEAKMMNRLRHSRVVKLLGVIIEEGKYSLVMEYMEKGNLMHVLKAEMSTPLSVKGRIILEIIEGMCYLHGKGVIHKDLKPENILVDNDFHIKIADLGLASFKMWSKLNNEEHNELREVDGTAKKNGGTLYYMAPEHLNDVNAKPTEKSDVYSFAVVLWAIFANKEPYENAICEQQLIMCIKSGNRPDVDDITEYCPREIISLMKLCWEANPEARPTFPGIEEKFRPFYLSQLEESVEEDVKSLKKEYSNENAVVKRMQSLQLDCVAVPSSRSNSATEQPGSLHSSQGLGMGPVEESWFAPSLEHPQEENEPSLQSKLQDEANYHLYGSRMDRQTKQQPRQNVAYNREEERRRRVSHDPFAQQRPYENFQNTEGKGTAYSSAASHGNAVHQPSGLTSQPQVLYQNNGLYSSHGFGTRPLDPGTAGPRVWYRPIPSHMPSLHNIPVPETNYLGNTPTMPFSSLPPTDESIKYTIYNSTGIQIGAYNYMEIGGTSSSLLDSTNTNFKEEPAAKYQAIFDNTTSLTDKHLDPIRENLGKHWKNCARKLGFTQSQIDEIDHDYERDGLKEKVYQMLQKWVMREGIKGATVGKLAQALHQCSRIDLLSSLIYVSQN

Chain of Serine/threonine-protein kinase 32A (Homo sapiens) (Q8WU08 whole entry): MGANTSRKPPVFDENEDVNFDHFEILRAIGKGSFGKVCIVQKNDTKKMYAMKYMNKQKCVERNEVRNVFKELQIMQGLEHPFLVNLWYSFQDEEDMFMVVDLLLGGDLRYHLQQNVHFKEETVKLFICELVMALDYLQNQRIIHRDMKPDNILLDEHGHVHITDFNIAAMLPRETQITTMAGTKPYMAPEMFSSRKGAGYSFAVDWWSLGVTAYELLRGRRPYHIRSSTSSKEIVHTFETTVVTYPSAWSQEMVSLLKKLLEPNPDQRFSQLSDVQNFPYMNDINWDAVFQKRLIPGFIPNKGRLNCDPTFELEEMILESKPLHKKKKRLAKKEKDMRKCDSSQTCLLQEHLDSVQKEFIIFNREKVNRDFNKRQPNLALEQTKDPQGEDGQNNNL
Chain of Ephrin type-A receptor 4 (P54764 whole entry): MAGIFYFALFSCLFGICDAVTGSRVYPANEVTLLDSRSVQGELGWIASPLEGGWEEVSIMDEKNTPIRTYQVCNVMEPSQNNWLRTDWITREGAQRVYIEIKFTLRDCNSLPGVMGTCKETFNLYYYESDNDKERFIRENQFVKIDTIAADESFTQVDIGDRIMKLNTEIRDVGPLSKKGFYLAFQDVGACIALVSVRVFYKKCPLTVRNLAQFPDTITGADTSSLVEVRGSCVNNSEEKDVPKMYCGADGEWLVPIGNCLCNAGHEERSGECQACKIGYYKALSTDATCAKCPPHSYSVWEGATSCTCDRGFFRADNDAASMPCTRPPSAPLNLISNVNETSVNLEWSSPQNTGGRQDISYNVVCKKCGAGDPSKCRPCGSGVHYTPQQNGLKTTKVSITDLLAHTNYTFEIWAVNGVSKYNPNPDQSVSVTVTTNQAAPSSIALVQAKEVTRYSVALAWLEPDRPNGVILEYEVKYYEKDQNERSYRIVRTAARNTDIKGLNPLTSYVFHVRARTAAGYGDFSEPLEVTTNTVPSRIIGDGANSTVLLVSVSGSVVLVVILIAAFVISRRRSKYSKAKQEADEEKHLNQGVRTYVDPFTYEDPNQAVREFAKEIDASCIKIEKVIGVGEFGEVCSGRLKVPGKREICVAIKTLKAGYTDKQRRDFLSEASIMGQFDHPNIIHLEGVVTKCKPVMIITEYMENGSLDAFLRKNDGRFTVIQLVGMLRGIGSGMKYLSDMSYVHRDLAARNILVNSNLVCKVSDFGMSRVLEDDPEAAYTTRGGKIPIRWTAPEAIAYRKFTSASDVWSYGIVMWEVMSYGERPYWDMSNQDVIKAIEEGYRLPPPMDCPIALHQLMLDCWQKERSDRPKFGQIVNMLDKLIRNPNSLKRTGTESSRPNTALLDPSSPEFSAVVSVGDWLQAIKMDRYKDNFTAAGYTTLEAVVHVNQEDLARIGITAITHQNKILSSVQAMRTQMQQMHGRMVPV
Chain of Tyrosine-protein kinase ABL1 (Homo sapiens), P00519 [F317I] (P00519 whole entry F317I): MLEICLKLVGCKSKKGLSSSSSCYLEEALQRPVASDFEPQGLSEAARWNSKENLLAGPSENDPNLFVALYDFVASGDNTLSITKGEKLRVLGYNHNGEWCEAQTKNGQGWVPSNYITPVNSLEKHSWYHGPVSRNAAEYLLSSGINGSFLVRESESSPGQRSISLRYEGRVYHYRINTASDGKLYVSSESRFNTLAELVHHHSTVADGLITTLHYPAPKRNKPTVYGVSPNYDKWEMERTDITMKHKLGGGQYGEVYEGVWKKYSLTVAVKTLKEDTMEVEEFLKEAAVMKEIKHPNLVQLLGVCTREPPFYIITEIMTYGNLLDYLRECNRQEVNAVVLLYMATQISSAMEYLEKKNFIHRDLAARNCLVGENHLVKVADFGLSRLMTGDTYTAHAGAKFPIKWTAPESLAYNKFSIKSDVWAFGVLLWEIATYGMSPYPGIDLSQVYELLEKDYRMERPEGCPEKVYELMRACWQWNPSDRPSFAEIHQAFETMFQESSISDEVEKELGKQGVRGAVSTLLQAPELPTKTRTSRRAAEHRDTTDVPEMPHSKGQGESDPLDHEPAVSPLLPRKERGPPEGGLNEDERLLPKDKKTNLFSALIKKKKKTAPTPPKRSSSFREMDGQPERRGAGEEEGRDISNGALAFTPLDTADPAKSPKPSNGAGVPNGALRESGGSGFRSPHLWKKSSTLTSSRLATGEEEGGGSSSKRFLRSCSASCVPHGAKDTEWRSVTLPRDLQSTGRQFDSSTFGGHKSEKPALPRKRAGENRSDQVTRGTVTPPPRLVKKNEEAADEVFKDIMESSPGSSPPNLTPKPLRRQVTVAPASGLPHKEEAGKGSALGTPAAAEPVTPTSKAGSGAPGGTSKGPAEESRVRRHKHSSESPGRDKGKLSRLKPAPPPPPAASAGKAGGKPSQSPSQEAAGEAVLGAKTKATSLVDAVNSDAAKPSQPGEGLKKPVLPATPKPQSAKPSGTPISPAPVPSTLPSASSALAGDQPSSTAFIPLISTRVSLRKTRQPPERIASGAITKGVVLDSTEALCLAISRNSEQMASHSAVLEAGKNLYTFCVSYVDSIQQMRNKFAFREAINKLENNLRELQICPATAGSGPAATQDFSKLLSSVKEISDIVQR
Chain of Phosphatidylinositol 4-phosphate 5-kinase type-1 gamma (Homo sapiens) (O60331 whole entry): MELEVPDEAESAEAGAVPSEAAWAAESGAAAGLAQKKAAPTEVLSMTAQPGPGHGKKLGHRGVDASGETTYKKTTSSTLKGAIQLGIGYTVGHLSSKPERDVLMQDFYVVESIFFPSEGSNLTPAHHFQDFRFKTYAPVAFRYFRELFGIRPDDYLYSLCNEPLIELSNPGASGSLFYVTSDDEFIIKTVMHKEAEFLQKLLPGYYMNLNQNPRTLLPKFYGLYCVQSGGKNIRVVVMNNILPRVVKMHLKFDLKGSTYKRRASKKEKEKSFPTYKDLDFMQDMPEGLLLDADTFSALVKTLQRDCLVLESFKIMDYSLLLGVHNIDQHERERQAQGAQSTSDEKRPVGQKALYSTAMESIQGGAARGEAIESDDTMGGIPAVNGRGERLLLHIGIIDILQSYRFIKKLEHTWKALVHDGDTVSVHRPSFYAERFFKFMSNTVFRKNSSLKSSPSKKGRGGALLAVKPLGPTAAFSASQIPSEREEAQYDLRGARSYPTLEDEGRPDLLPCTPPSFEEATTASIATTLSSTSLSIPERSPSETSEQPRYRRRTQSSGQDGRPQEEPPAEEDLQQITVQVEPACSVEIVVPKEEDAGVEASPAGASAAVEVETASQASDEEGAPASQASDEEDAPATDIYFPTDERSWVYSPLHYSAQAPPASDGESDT

For `CCC(=O)N1CCN(c2ccc(-n3c(=O)ccc4cnc5ccc(-c6cnc7ccccc7c6)cc5c43)cc2C(F)(F)F)CC1`, the % of control (Ephrin type-A receptor 4) was 90%.
`CN(C)CCOc1ccc(-c2nc(-c3ccncc3)c(-c3ccc4c(c3)CC/C4=N\O)[nH]2)cc1` gave a % of control [1] of 85%.
`CNC(=O)Nc1ccc(-c2nc(N3CC4CCC(C3)O4)c3cnn(C4CCC5(CC4)OCCO5)c3n2)cc1` was tested, and the % of control [2] was 100% and the % of control [3] was 100%.
For `Cc1cc(F)c(C(=O)Nc2cccc(-c3nncn3C(C)C)n2)cc1-n1cnc(C2CC2)c1`, the % of control [4] was 97%.
With `N#Cc1cccc(-c2c[nH]c3ncnc(N4CCOCC4)c23)c1` the % of control [5] was 70% and the % of control [6] was 100%.
